Reference: ChEMBL document CHEMBL6127007, “Development of visible-light-activatable photocaged PROTACs” (Eur J Med Chem, 2024)
Activity calls are given as the source filed them. No cut-off for these calls is given here.

How the values were obtained:
[1] = biological target: T1, Protein cereblon/Bromodomain-containing protein 4 (Homo sapiens, UniProt O60885+Q96SW2); assay: Photocaged-PROTAC activity at CRBN/BRD4 in human Ramos cells assessed as reduction in Brd4 protein level at 0.03 to 10 uM pre-incubated for 2 hrs under dark followed by UV light irradiation at 3 mW/cm^2 for 3 mins and measured after 12 hrs by Western blot analysis; format: cell-based; settings: dose 0.03-10 µM, time 14.0 hrs
[2] = biological target: T1, Protein cereblon/Bromodomain-containing protein 4; assay: Photocaged-PROTAC activity at CRBN/BRD4 in human Ramos cells assessed as Brd4 protein degradation at 0.03 to 10 uM pre-incubated for 2 hrs under dark followed by 365 nm UV light irradiation for 3 mins and measured after 12 hrs by Western blot analysis; format: cell-based; settings: dose 0.03-10 µM
[3] = biological target: T1, Protein cereblon/Bromodomain-containing protein 4; assay: Photocaged-PROTAC activity at CRBN/BRD4 in human Ramos cells assessed as Brd4 protein degradation at 0.03 to 10 uM incubated for 12 hrs under dark by Western blot analysis; format: cell-based; settings: dose 0.03-10 µM
[4] = biological target: T1, Protein cereblon/Bromodomain-containing protein 4; assay: Photocaged-PROTAC activity at CRBN/BRD4 in human Ramos cells assessed as […] Brd4 protein degradation under dark condition pre-incubated for 12 hrs by Western blot analysis; format: cell-based
[5] = biological target: T1, Protein cereblon/Bromodomain-containing protein 4; assay: Photocaged-PROTAC activity at CRBN/BRD4 in human Ramos cells assessed as […] Brd4 protein degradation pre-incubated for 2 hrs followed by UV light irradiation at 365 nM for 3 mins and measured after 12 hrs by Western blot analysis; format: cell-based
NAMALVA [6] = assay: Antiproliferative activity against human NAMALVA cells assessed as reduction in cell viability pre-incubated for 2 hrs under dark followed by visible light irradiation for 3 mins at 405 nm and measured after 72 hrs under dark condition by CellTiter-Glo luminescent assay; format: functional, cell-based; settings: light or radiation study
[7] = Photoactivation of the Photocaged-PROTAC assessed as uncaging rate measuring dBET1 release under visible light measured at 1 min by HPLC analysis
[8] = biological target: T1, Protein cereblon/Bromodomain-containing protein 4; assay: Photocaged-PROTAC activity at CRBN/BRD4 in human Ramos cells assessed as Brd4 protein degradation at 10000 nM incubated for 12 hrs under dark by Western blot analysis; format: cell-based
[9] = biological target: T1, Protein cereblon/Bromodomain-containing protein 4; assay: Photocaged-PROTAC activity at CRBN/BRD4 in human Ramos cells assessed as Brd4 protein degradation at 30 nM pre-incubated for 2 hrs under dark followed by 365 nm UV light irradiation for 3 mins and measured after 12 hrs by Western blot analysis; format: cell-based; settings: time 14.0 hrs
[10] = biological target: T1, Protein cereblon/Bromodomain-containing protein 4; assay: Photocaged-PROTAC activity at CRBN/BRD4 in human Ramos cells assessed as reduction in Brd4 protein level at 0.03 to 10 uM pre-incubated for 2 hrs followed by visible light irradiation at 405 nm for 3 mins and measured after 12 hrs by Western blot analysis; format: cell-based; settings: dose 0.03-10 µM, time 14.0 hrs
NAMALVA [11] = assay: Antiproliferative activity against human NAMALVA cells assessed as reduction in cell viability upto 10 uM measured after 72 hrs by CellTiter-Glo luminescent assay; format: functional, cell-based
NAMALVA [12] = assay: Antiproliferative activity against human NAMALVA cells assessed as reduction in cell viability upto 10 uM measured after 72 hrs under dark condition by CellTiter-Glo luminescent assay; format: functional, cell-based
[13] = biological target: T1, Protein cereblon/Bromodomain-containing protein 4; assay: Photocaged-PROTAC activity at CRBN/BRD4 in human Ramos cells assessed as […] Brd4 protein degradation pre-incubated for 2 hrs followed by visible light irradiation at 405 nM for 3 mins and measured after 12 hrs by Western blot analysis; format: cell-based
[14] = biological target: T1, Protein cereblon/Bromodomain-containing protein 4; assay: Photocaged-PROTAC activity at CRBN/BRD4 in human Ramos cells assessed as reduction in Brd4 protein level at 0.03 to 10 uM incubated for 12 hrs under dark by Western blot analysis; format: cell-based; settings: dose 0.03-10 µM
[15] = biological target: T1, Protein cereblon/Bromodomain-containing protein 4; assay: Photocaged-PROTAC activity at CRBN/BRD4 in human Ramos cells assessed as Brd4 protein degradation upto 3 uM pre-incubated for 2 hrs under dark followed by 365 nm UV light irradiation for 3 mins and measured after 12 hrs by Western blot analysis; format: cell-based; settings: time 14.0 hrs

T1 sequence (Q96SW2 whole entry, looked up, other chains not shown): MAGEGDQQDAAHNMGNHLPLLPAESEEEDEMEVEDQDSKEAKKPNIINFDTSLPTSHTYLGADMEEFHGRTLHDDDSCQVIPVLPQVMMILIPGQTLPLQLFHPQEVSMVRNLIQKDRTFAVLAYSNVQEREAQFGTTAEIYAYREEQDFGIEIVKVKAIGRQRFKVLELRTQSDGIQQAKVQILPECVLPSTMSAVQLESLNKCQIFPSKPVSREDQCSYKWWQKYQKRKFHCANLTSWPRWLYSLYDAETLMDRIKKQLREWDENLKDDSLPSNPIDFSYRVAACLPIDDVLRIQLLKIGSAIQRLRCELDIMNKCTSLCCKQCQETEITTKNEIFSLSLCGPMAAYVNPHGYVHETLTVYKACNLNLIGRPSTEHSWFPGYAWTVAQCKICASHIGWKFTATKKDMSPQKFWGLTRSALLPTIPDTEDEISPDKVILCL

SMILES	DC50 [4] [nM]	DC50 [5] [nM]	IC50 (NAMALVA [6]) [nM]	Activity [7]	IC50 (NAMALVA [12]) [nM]	DC50 [13] [nM]	further results
CCNC(=O)c1sc2c(c1C)C(c1ccc(Cl)cc1)=N[C@@H](CC(=O)NCCCCNC(=O)COc1cccc3c1C(=O)N(C1CCC(=O)NC1=O)C3=O)c1nnc(C)n1-2 (some centres not stated)	–	–	–	–	–	–	Activity [1]: Active
COc1cc(CN(C(=O)COCCOCCOCCOC(=O)C[C@@H]2N=C(c3ccc(Cl)cc3)c3c(sc(C)c3C)-n3c(C)nnc32)[C@H](C(=O)N2C[C@H](O)C[C@H]2C(=O)NCc2ccc(-c3scnc3C)cc2)C(C)(C)C)c([N+](=O)[O-])cc1OC	> 10000	> 10000	–	–	–	–	Activity [2]: inactive; Activity [3]: inactive
CCN(Cc1cc(OC)c(OC)cc1[N+](=O)[O-])C(=O)c1sc2c(c1C)C(c1ccc(Cl)cc1)=N[C@@H](CC(=O)NCCCCNC(=O)COc1cccc3c1C(=O)N(C1CCC(=O)NC1=O)C3=O)c1nnc(C)n1-2 (some centres not stated)	> 10000	1980	–	–	–	–	Activity [1]: Active
Cc1sc2c(c1C)C(c1ccc(Cl)cc1)=N[C@@H](CC(=O)NCCCCNC(=O)COc1cccc3c1C(=O)N(C1CCC(=O)NC1=O)C3=O)c1nnc(C)n1-2 (some centres not stated)	–	–	317	–	–	–	–
COc1cc(CN(Cc2ccc(-c3scnc3C)cc2)C(=O)[C@@H]2C[C@@H](O)CN2C(=O)[C@@H](NC(=O)COCCOCCOCCOC(=O)C[C@@H]2N=C(c3ccc(Cl)cc3)c3c(sc(C)c3C)-n3c(C)nnc32)C(C)(C)C)c([N+](=O)[O-])cc1OC	> 10000	< 30	–	Active	–	–	Activity [2]: Active; Activity [8]: inactive; Activity [9]: Active
Cc1sc2c(c1C)C(c1ccc(Cl)cc1)=N[C@@H](CC(=O)N(CCCCNC(=O)COc1cccc3c1C(=O)N(C1CCC(=O)NC1=O)C3=O)C(C)c1cc3c(cc1[N+](=O)[O-])oc1ccccc13)c1nnc(C)n1-2 (some centres not stated)	–	–	291	Active	> 10000	65	Activity [10]: Active; Activity (NAMALVA [11]): inactive
COc1cc(COC(=O)O[C@@H]2C[C@@H](C(=O)NCc3ccc(-c4scnc4C)cc3)N(C(=O)[C@@H](NC(=O)COCCOCCOCCOC(=O)C[C@@H]3N=C(c4ccc(Cl)cc4)c4c(sc(C)c4C)-n4c(C)nnc43)C(C)(C)C)C2)c([N+](=O)[O-])cc1OC	< 30	< 30	–	Active	–	–	Activity [2]: Active
Cc1sc2c(c1C)C(c1ccc(Cl)cc1)=N[C@@H](CC(=O)N(CCCCNC(=O)COc1cccc3c1C(=O)N(C1CCC(=O)NC1=O)C3=O)Cc1cc3oc4ccccc4c3cc1[N+](=O)[O-])c1nnc(C)n1-2 (some centres not stated)	–	–	287	Active	> 10000	32	Activity [10]: Active; Activity (NAMALVA [11]): inactive
Cc1sc2c(c1C)C(c1ccc(Cl)cc1)=N[C@@H](CC(=O)N(CCCCNC(=O)COc1cccc3c1C(=O)N(C1CCC(=O)NC1=O)C3=O)Cc1cc3c(cc1[N+](=O)[O-])oc1cc(N(C)C)ccc13)c1nnc(C)n1-2 (some centres not stated)	–	–	476	Active	> 10000	62	Activity [10]: Active; Activity (NAMALVA [11]): inactive
Cc1ncsc1-c1ccc(CNC(=O)[C@@H]2C[C@@H](O)CN2C(=O)[C@@H](NC(=O)COCCOCCOCCNC(=O)C[C@@H]2N=C(c3ccc(Cl)cc3)c3c(sc(C)c3C)-n3c(C)nnc32)C(C)(C)C)cc1	–	–	170	–	–	–	–
Cc1sc2c(c1C)C(c1ccc(Cl)cc1)=N[C@@H](CC(=O)NCCCCNC(=O)COc1cccc3c1C(=O)N(C1CCC(=O)N(OCc4cc5oc6ccccc6c5cc4[N+](=O)[O-])C1=O)C3=O)c1nnc(C)n1-2 (some centres not stated)	–	–	741	Active	> 2350	108	Activity [10]: Active
COc1cc(CON2C(=O)CCC(N3C(=O)c4cccc(OCC(=O)NCCCCNC(=O)C[C@@H]5N=C(c6ccc(Cl)cc6)c6c(sc(C)c6C)-n6c(C)nnc65)c4C3=O)C2=O)c([N+](=O)[O-])cc1OC (some centres not stated)	> 10000	148	–	–	–	–	Activity [1]: Active; Activity [14]: inactive
COc1cc(CN(CCCCNC(=O)C[C@@H]2N=C(c3ccc(Cl)cc3)c3c(sc(C)c3C)-n3c(C)nnc32)C(=O)COc2cccc3c2C(=O)N(C2CCC(=O)NC2=O)C3=O)c([N+](=O)[O-])cc1OC (some centres not stated)	59	55	–	–	–	–	Activity [14]: Active
COc1cc(CN2C(=O)CCC(N3C(=O)c4cccc(OCC(=O)NCCCCNC(=O)C[C@@H]5N=C(c6ccc(Cl)cc6)c6c(sc(C)c6C)-n6c(C)nnc65)c4C3=O)C2=O)c([N+](=O)[O-])cc1OC (some centres not stated)	> 10000	2310	–	–	–	–	Activity [14]: inactive
Cc1ncsc1-c1ccc(CN(Cc2cc3c(cc2[N+](=O)[O-])oc2ccccc23)C(=O)[C@@H]2C[C@@H](O)CN2C(=O)[C@@H](NC(=O)COCCOCCOCCOC(=O)C[C@@H]2N=C(c3ccc(Cl)cc3)c3c(sc(C)c3C)-n3c(C)nnc32)C(C)(C)C)cc1	–	–	140	–	1170	< 30	Activity [15]: Active
